Measured values reported in article PMC8512560, “Design, Synthesis, and Antipoliferative Activities of Novel Substituted Imidazole-Thione Linked Benzotriazole Derivatives” (Molecules, 2021).

What was measured:
[1] = system: PARP; test: Western blot of PARP cleavage in HL-60 cells; assay type: cell-based, human; details: HL-60, after a 48 h treatment
Protocol: HL-60 cells were seeded at a density of 1 × 10^5 cells/flask in T25 flasks. After 48 h, whole cell lysates were prepared from untreated cells or cells treated with vehicle control (EtOH, 0.1% v/v) or compound BI9 (0.5 and 1 μM). HL-60 cells were harvested in RIPA buffer supplemented with protease inhibitors (Roche Diagnostics), phosphatase inhibitor cocktail 2 (Sigma-Aldrich), and phosphatase inhibitor cocktail 3 (Sigma-Aldrich). Equal quantities of protein (as determined by a BCA assay) were resolved by SDS-PAGE (12%) followed by transfer to PVDF membranes. Membranes were blocked in 5% bovine serum albumin/TBST for 1 h. Membranes were incubated in the relevant primary antibodies at 4 °C overnight, washed with TBST, and incubated in horseradish peroxidase conjugated secondary antibody for 1 h at rt and washed again. Western blot analysis was performed as described above using antibodies directed against BAX [1:1000] (Cell Signaling Technology), PARP [1:500] (Cell Signaling Technology) and Bcl-2 [1:500] (Cell Signaling Technology) followed by incubation with a horseradish peroxidase-conjugated anti-mouse antibody [1:2000] (Promega, Madison, WI, USA). All blots were probed with β-actin antibody [1:5000] (Sigma) to confirm equal loading. Proteins were detected using enhanced chemiluminescent Western blot detection (Clarity Western ECL substrate) (Bio Rad) on the ChemiDoc MP System (Bio Rad). […]

[2] = system: bovine brain tubulin; test: Tubulin polymerization assay (turbidimetric, kit BK006); assay type: biochemical; details: read-out: Anti-Tubulin Activity IC50 ± SD (inhibition of tubulin polymerization)
Protocol: The assembly of purified bovine tubulin was monitored using a kit, BK006, purchased from Cytoskeleton Inc., (Denver, CO, USA). The assay was carried out in accordance with the manufacturer’s instructions using the standard assay conditions. Briefly, purified ([…]) in a buffer consisting of 80 mM PIPES (pH 6.9), 0.5 mM EGTA, 2 mM MgCl2, 1 mM GTP and 10% glycerol was incubated at 37 °C in the presence of either vehicle (2% (v/v) ddH2O), CA-4, benzotriazole compounds. Light was scattered proportionally to the concentration of polymerized microtubules in the assay. Therefore, the tubulin assembly was monitored turbidimetrically at 340 nm in a Spectramax 340 PC spectrophotometer (Molecular Devices, Sunnyvale, CA, USA). The concentration that inhibits tubulin polymerization by 50% (IC50) was determined using area under the curve (AUC). The AUC of the untreated controls were considered as 100% polymerization. The IC50 value for each compound was computed using GraphPad Prism Software.

[3] = system: Bcl-2; test: Western blot of Bcl-2 expression in HL-60 cells; assay type: cell-based, human; details: HL-60, 0.5 and 1 µM, compared to the untreated group
Protocol: HL-60 cells were seeded at a density of 1 × 10^5 cells/flask in T25 flasks. […] HL-60 cells were harvested in RIPA buffer supplemented with protease inhibitors (Roche Diagnostics), phosphatase inhibitor cocktail 2 (Sigma-Aldrich), and phosphatase inhibitor cocktail 3 (Sigma-Aldrich). Equal quantities of protein (as determined by a BCA assay) were resolved by SDS-PAGE (12%) followed by transfer to PVDF membranes. Membranes were blocked in 5% bovine serum albumin/TBST for 1 h. Membranes were incubated in the relevant primary antibodies at 4 °C overnight, washed with TBST, and incubated in horseradish peroxidase conjugated secondary antibody for 1 h at rt and washed again. Western blot analysis was performed as described above using antibodies directed against BAX [1:1000] (Cell Signaling Technology), PARP [1:500] (Cell Signaling Technology) and Bcl-2 [1:500] (Cell Signaling Technology) followed by incubation with a horseradish peroxidase-conjugated anti-mouse antibody [1:2000] (Promega, Madison, WI, USA). All blots were probed with β-actin antibody [1:5000] (Sigma) to confirm equal loading. Proteins were detected using enhanced chemiluminescent Western blot detection (Clarity Western ECL substrate) (Bio Rad) on the ChemiDoc MP System (Bio Rad). Experiments were performed on three independent occasions.

[4] = system: MCF-7, HL-60 and HCT-116 cancer cell lines; test: MTT viability assay, values pooled over the cancer cell lines; assay type: cell-based, human; details: Homo sapiens, MCF-7, HL-60 and HCT-116; MTT; read-out: IC50 values range over the three cancer cell lines
Protocol: All the human tumour cell lines MCF-7, HL-60, HCT-116, and HUVEC were cultured in Dulbecco’s Modified Eagle’s Medium (DMEM) with 10% fetal bovine serum, 2 mM L-glutamine and 100 µg/mL penicillin/streptomycin. Cells were maintained at 37 °C in 5% CO2 in a humidified incubator. All cells were sub-cultured three times/week by trypsinization using TrypLE Express (1X).
The Benzotriazole compounds were evaluated for antiproliferative effect using the MTT viability assay of various cancer cell lines (MCF-7, HCT-116 and HL-60) and the normal human umbilical vein endothelial cell line (HUVEC) to calculate the relative IC50 values for each compound. Cells were seeded in triplicate in 96-well plates at a density of 10 × 10^3 cells/mL in a total volume of 200 µL per well. 0.1% of DMSO was used as a vehicle control. After this time, they were treated with 2 µL test compound which had been pre-prepared as stock solutions in ethanol to furnish the concentration range of study, 10 nM to 100 µM, and re-incubated for a further 72 h. The culture medium was then removed, and the cells washed with 100 µL phosphate buffered saline (PBS) and 50 µL MTT added, to reach a final concentration of 1 mg/mL MTT added. Cells were incubated for 2 h in darkness at 37 °C. At this point solubilisation was begun through the addition of […] DMSO and the cells maintained at room temperature in darkness for 20 min to ensure thorough colour diffusion before reading the absorbance. Plates were incubated for 72 h at 37 °C + 5% CO2. The MTT (5 mg/mL in PBS) was added and incubated for another 4 h, and the optical density was detected with a microplate reader at 570 nm. Results were expressed as percentage viability relative to vehicle control (100%). Dose response curves were plotted and IC50 values (concentration of drug resulting in 50% reduction in cell survival) were obtained using the commercial software package Prism (GraphPad Software, Inc., La Jolla, CA, USA). All the experiments were repeated in at least three independent experiments.

IC50 [2]: 520 ± 20 nM
IC50 [4]: 400 to 3300 nM
Structure (SMILES): S=c1[nH]c(-n2nnc3ccccc32)cn1-c1ccc(Cl)cc1Cl [BI9, 4-(1H-Benzo[d][1,2,3]Triazol-1-yl)-1-(2,4-Dichlorophenyl)-1H-Imidazole-2(3H)-Thione]
PARP cleavage (indicator of apoptosis) [1]: confirmed
Expression of pro-survival protein Bcl-2 [3]: down-regulated
